Experiment [1] deals with choline-metabolizing gut bacteria (E. coli, P. mirabilis, C. sporogenes, A. hydrogenalis). Put plainly: TMA inhibition across the panel of four choline-metabolizing gut bacteria. In kind it is cell-based. As to conditions: for EC50: read-out: EC50 values for TMA inhibition across the choline-metabolizing bacteria. The source says:
We then used secondary assays to prioritize scaffolds that had broad-spectrum TMA inhibitory activity against additional choline-metabolizing gut bacteria. For this, we used Clostridium sporogenes ATCC 15579, a human gut isolate that is able to efficiently ferment choline in addition to other carbon sources, as well as Anaerococcus hydrogenalis DSM 7454 and Proteus mirabilis ATCC 29906, human gut isolates previously identified to metabolize choline in vitro ([61]). In particular, E. coli MS 200-1 and C. sporogenes ATCC 15579 have been used in gnotobiotic studies to investigate the effects of bacterial choline metabolism on the host and microbiome ([46], [61], [62]). These strains are representative of taxa frequently detected in humans ([63]) and, together with E. coli, are representative of the major phyla and genera in which TMA producers have been detected across human gut isolates ([48]). Importantly, this group of strains included both gram-positive and gram-negative bacteria. Gram-negative bacteria have an additional outer membrane layer and associated efflux pumps ([29]), which typically decreases small molecule permeability compared to gram-positive bacteria. It also included bacteria with cut gene cluster architectures that differ in the number and types of microcompartment proteins encoded and in the size of the CutC enzyme ([48]). We hypothesized that testing the inhibitors against multiple choline-utilizing gut bacteria would increase the likelihood of identifying compounds with broad-spectrum activity.
Compounds were stored as 10 mM DMSO stocks at –20°C and diluted in DMSO to prepare varying concentrations of inhibitors for testing. Bacteria were grown anaerobically overnight in media supplemented with choline as described above. Cells were pelleted and resuspended in PBS, and d9-choline chloride was added to a final concentration of 1 mM. The final OD600 of the PBS cell resuspensions is as follows: 0.4 (E. coli), 0.15–0.2 (P. mirabilis), 0.2 (C. sporogenes), and 0.4 (A. hydrogenalis). The resuspended cells were added to 96-well plates containing inhibitors (final concentration of 1% DMSO, with final inhibitor concentrations ranging between 0 and 325 µM). The plates were sealed and incubated for 75 min (or 90 min for P. mirabilis) at 37°C. Following incubation, the plates were removed from the anaerobic chamber and analyzed immediately or kept at –20°C until LC–MS/MS analysis. Each inhibitor concentration was tested in triplicate. EC50 values were calculated with GraphPad Prism by fitting the log(inhibitor) vs response—Variable slope (four-parameter) model for non-linear regression.

Experiment [2] concerns E. coli MS 200-1. Put plainly: Growth inhibition of E. coli cultures in choline- and glycerol-containing minimal media. As to conditions: for Effect on growth of E. coli MS 200-1 in glycerol medium: glycerol NCE minimal medium. In kind it is cell-based, Escherichia coli MS 200-1. Here is the method:
To validate the potential hits from the HTS, we tested the 178 compounds for inhibition of growth of E. coli MS 200-1 in glycerol minimal media at 30 µg/mL, following up with those without activity. […]. We then determined EC50 values for inhibition of TMA production from choline by bacterial cultures incubated with [trimethyl-d9]choline in phosphate-buffered saline. Of the 178 compounds tested in both growth and TMA inhibition assays, 20 inhibited TMA generation by E. coli MS 200-1 without growth-inhibitory effects in glycerol minimal medium.
NCE media was adapted based on the “no carbon E” media as previously described ([14]), and contains 29 mM potassium phosphate monobasic, 29 mM potassium phosphate dibasic, 17 mM ammonium sodium phosphate dibasic, 40 mM sodium fumarate dibasic, 0.1% (wt/vol) casamino acids, and either 20 mM choline chloride or 3 g/L glycerol. This mixture was supplemented with 1 mM magnesium sulfate, 1% ATCC vitamin supplement, and 1% ATCC trace mineral supplement.

Experiment [3] has as its target T1, purified CutC (choline trimethylamine-lyase) (Oleidesulfovibrio alaskensis, UniProt Q30W70).
T1 construct: made in house
Put plainly: In vitro CutC activity assay coupled to YADH/NADH (absorbance 340 nm). In kind it is biochemical, Desulfovibrio desulfuricans G20. As to conditions: 5 nM CutC, 200 µM choline, 20°C, anaerobic. On the procedure:
To investigate if our compounds were inhibiting CutC directly, we tested their activity toward the purified enzyme. The activity of CutC was determined using a coupled enzyme assay, where the acetaldehyde product from the cleavage of choline to TMA is reduced to ethanol by yeast alcohol dehydrogenase (YADH) using nicotinamide adenine dinucleotide (NADH) as a cofactor. The consumption of NADH results in a change in absorption at 340 nm, and this rate of change of absorption was used to calculate the initial rates of reaction of CutC in the presence of varying concentrations of inhibitors ([14], [65]).
CutC and CutD enzymes from Desulfovibrio desulfuricans G20 were purified, CutC was activated by incubation with CutD, and the amount of glycyl radical installation was quantified as previously described ([15]). The IC50 of compounds was determined in an in vitro CutC activity assay, where CutC activity is coupled to the NADH-dependent enzymatic reduction of acetaldehyde by YADH ([15]). Briefly, assays were conducted in an anaerobic chamber (MBraun) under N2 atmosphere at 20°C. In 50 mM potassium phosphate buffer (pH 8.0, 50 mM KCl), 40 µM of CutD and 150 µM of sodium dithionite were incubated for 20 min before the addition of 200 µM of SAM and 20 µM of CutC monomer. The mixture was incubated for 1 h to activate the glycyl radical enzyme, after which the activated CutC mixture was diluted […] in 50 mM potassium phosphate buffer (pH 8.0, 50 mM KCl). A master mix containing 200 µM NADH, 0.4 µM YADH (Sigma), and the diluted CutC mixture (5 nM final concentration in assay) was prepared and aliquoted into 96-well plates (180 µL per well). Ten microliters of inhibitor or DMSO vehicle was added, followed by 10 µL of aqueous choline chloride solution (final concentration 200 µM). Absorbance was measured at 340 nm immediately after addition of all assay components, with measurements taken every 20 s for 10 min. Initial rates were calculated from absorbance measurements and fitted to Michaelis–Menten equation using nonlinear regression in GraphPad Prism 10 (v. 10.4.0). Background activity was subtracted using no substrate controls, and initial rates for each inhibitor concentration were normalized to no inhibitor controls. IC50 values were obtained by plotting normalized activity values against the logarithm of inhibitor concentration and fitting to a nonlinear regression model in GraphPad Prism 10 (v. 10.4.0).

In experiment [4] the test system is E. coli MS 200-1. Put plainly: MIC in MEGA medium. In kind it is cell-based, Escherichia coli MS 200-1. As to conditions: Escherichia coli, MS2001; anaerobic, 37°C, 24 h, up to 200 µM. Here is the method:
For TMA inhibition assays, E. coli and P. mirabilis were grown in NCE medium supplemented with 20 mM choline chloride, A. hydrogenalis was grown in MEGA medium supplemented with 3 mM choline chloride, and C. sporogenes was grown in BHI medium supplemented with 20 mM of choline chloride to induce expression of the cut gene cluster. For MIC assays, all bacteria strains were grown in MEGA medium.

T1 sequence (Q30W70 53-846): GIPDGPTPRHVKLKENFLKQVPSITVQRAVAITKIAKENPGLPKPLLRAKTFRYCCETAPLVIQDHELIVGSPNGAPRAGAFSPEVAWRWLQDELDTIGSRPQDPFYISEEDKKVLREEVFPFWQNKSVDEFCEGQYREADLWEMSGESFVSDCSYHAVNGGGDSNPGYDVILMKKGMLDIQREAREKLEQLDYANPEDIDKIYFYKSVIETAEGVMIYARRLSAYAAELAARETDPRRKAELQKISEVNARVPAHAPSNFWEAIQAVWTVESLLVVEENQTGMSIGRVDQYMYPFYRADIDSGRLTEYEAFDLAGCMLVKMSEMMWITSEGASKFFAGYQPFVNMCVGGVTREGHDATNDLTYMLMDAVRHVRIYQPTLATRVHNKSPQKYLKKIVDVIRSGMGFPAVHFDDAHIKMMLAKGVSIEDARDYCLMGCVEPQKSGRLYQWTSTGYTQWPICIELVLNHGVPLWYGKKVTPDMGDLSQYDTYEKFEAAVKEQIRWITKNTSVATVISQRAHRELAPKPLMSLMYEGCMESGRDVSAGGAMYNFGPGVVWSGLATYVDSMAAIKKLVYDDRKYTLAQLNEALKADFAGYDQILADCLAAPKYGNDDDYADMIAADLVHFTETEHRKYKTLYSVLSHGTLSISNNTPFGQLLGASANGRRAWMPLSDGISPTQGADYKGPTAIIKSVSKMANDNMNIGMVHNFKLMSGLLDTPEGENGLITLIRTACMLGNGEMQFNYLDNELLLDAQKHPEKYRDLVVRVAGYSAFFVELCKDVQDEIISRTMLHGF

As to `Cc1ccc(-c2cc(C(=O)NCCCN3CCc4ccccc4C3)c(C)[nH]2)cc1C` [Compound 5], the EC50 in experiment [1] was 12 to 33 µM. Further, the “Effect on growth of E. coli MS 200-1 in glycerol medium” value in the experiment on E. coli MS 200-1 [2] was “no impact on growth”.
With `Cc1ccc(-c2cc(C(=O)NCCCCCN3CCCCCC3)c(C)[nH]2)cc1C` [Compound 45], the “Fold more potent than 6 across the panel of bacteria” value in experiment [1] (compared with compound 6) is recorded as 2–10 fold. The “Reduction of conversion of choline to TMA by bacteria in vitro” value in experiment [1] (in vitro) is on record as above 80%. Further, the EC50 in experiment [1] lay within 2 to 18 µM. In experiment [3], this compound gave an IC50 of 17 µM. Also, in the experiment on E. coli MS 200-1 [4], the MIC is above 200 µM.
As for `Cc1ccc(-c2cc(C(=O)NCCCN3CCC(C)CC3)c(C)[nH]2)cc1C` [Compound 6], half-maximal inhibition in experiment [3] (IC50) was put at 48 µM. In the experiment with E. coli MS 200-1 [4], this compound registered an MIC above 200 µM. In addition, the “Inhibition of E. coli growth on choline” value in the experiment with E. coli MS 200-1 [2] (choline minimal medium, 7 h, 6: 125–500 µM, 42: 30–100 µM) is “dose-dependent”. Besides, the “Effect on growth of E. coli MS 200-1 in glycerol medium” value in the experiment on E. coli MS 200-1 [2] is reported as “not observed in glycerol”.

By EC50 is commonly meant the concentration needed to bring the measured effect to its halfway point. Broadly, the IC50 is the midpoint of a concentration-inhibition curve. What is called MIC is the lowest concentration found to suppress growth. Read a low MIC as greater potency.

The values above are taken from PMC12977544, “Phenotypic high-throughput screening identifies modulators of gut microbial choline metabolism” (mBio, 2026).
